Assay results as given in US4115453A (Miles Laboratories, Inc., priority 1977, dated 1978).

Legend:
gastric secretion = assay: Test B: Inhibition of Rodent Gastric Secretion (pylorus-ligated rat); type: in vivo; settings: subcutaneous, 2 x 1.5 mg/kg (total 3.0 mg/kg), 4 hours after pyloric ligation
Protocol: A procedure based on that described by Lipmann (J. Pharm. Pharmacol., 21:335 [ 1968]) was used to assess the influence of test compounds on gastric secretion. Rats of one sex weighing 150 to 200 g were randomly divided into groups of six animals each and fasted for 48 hours previously to the experiments, water being available adlibitum. The animals were anesthetized with ether, the abdomen was opened through a midline incision and the pylorus was ligated. Test compounds were diluted from stock solution so as to administer a dose of 1.5 mg/kg in a volume equivalent to 1 ml/kg. Subcutaneous injections were applied immediately after surgery and again 2 hours later, so that a total dose of 3.0 mg/kg was administered. Dilutions were made with phosphate buffer (pH 7.38) as recommended by Lee et al. (Prostaglandins 3:29 [ 1973]), in order to insure adequate stability of drugs at the subcutaneous depot. Each compound was tested in one group of rats; an additional control group received only the vehicle.
Four hours after pyloric ligation the animals were killed with ether, the cardias ligated and the stomachs removed. The volume of gastric secretion was measured and the contents centrifuged at 5000 rpm for 10 minutes. Total acid in the supernatant was titrated against a 0.1 N sodium hydroxide solution and the amount expressed in mEq.
Volume and total acid values of the treated group were compared with those of the controls by the "T" test. Antisecretory activity was scored according to the following scale: […]

femoral blood flow = assay: Test C: Increase in Canidae Femoral Blood Flow; type: in vivo; settings: anesthetized dog, intraarterial, 0.001 to 10 mcg
Protocol: The peripheral vasodilator or constrictor effects of test compounds were determined in mongrel dogs of either sex, weighing between 10 and 20 kg anesthestized intravenously with 35 mg/kg of sodium pentobarbital. An external iliac artery was dissected immediately above the femoral arch for a length of approximately 5 cm and a previously calibrated, non-connulating electromagnetic flowmeter sensor with a lumen between 2.5 and 3.5 mm was placed snugly around the vessel. Cannulas were placed in a branch of the artery arising distally to the location of the flowmeter sensor for intraarterial drug administrations, in the contralateral femoral artery for systemic blood pressure recordings and in the trachea for artificial respiration with room air. Femoral blood flow and systemic blood pressure were continuously recorded with an electromagnetic flowmeter and pressure tranducer, respectively.
After an adequate control period, test compounds were injected intraarterially at one log-spaced doses ranging from 0.001 to 10 mcg., in a volume of 0.5 ml and at 5 to 10 minute intervals. Maximum changes in bloodflow, as well as any variations in blood pressure, were tabulated for each dose in absolute values (ml/min. and mmHg). The calculations were made taking as control values those existing immediately before administration of each dose. The direction of the observed change (plus for increase and minus for decrease) was also noted. The dose changing bloodflow by 100 ml/min (ED100 ml/min) was calculated graphically and was used for scoring activity as follows: […]

[1] = system: human platelet aggregation; assay: Test A: Inhibition of Human Platelet Aggregation; type: cell-based; settings: human platelet rich plasma, in vitro, collagen-induced, 37° C, 15 minutes
Protocol: The ability of test compounds to inhibit platelet aggreagation was determined by a modification of the turbidometric technique of Born (Nature, 194: 927 [1962]). Blood was collected from human volunteer who had not ingested aspirin or aspirin-containing products within the preceding two weeks in heparinized containers and was allowed to settle for one (1) hour. The platelet rich plasma (prp) supernates were collected and cooled. Siliconized glassware was used throughout.
In a representative assay 1.9 ml of PRP and 0.2 ml of test compound at the appropriate concentrations (0.001 to 100 mcgm), or 0.2 ml of distilled water (control procedure) were placed in sample cuvettes. The cuvettes were placed in a 37° C incubation block for 15 minutes, and then in a spectrophotometer linked to a strip chart recorder. After 30-60 seconds, 0.2 ml of a solution, prepared by diluting a calf-skin collagen solution 1:9 with Tyrodes' Solution, was added to each cuvette. Platelet aggregation was evidenced by a decrease in optical density.
An ED50 value was then determined graphically.

blood pressure = assay: Test D: Decrease in Normal Feline Blood Pressure and Heart Rate (anesthetized cat); type: in vivo; settings: intravenous, 0.01 to 10.0 mcg/kg, judged only on hypotension
Protocol: The acute effects of test compounds on blood pressure and heart rate were determined in cats of either sex anesthetized with a mixture of pentobarbital sodium (35 mg/kg, i.v.) and barbital sodium (100 mg/kg, i.v.). Cannulas were placed in the trachea to allow adequate spontaneous ventilation, in a femoral artery for blood pressure recording with a strain gage transducer, and in a saphenous vein for drug administration. Heart rate was recorded by means of a cardiotachometer driven by the R wave of the electrocardiogram. After a period of 10 minutes of stable recordings of blood pressure and heart rate, the test compound was administered intravenously at doses increasing from 0.01 to 10.0 mcg/kg, spaced one log and injected at 10 minutes intervals. All doses were injected in a volume of 0.1 ml/kg. Modifications of blood pressure and heart rate induced by the test compound were expressed both in absolute units (mmHg and beats/minutes) and as percent of values recorded immediately before administration of each dose. Biphasic responses were tabulated in the order in which they occur. The direction of the observed changes was also noted (+ for increases and - for decreases).
Activity of compounds in this test was judged only on the basis of the degree of hypotension observed. Thus, the ED50 mmHg (dose decreasing blood pressure by 50 mmHg) was calculated graphically and the compound scored according to the following scale: […]

SMILES | Activity Value Test B (% decrease in acidity) (gastric secretion) | Activity Value Test C (ED100 ml/min, dose changing bloodflow by 100 ml/min) (femoral blood flow) | Activity Value Test A (ED50, inhibition of platelet aggregation) [1] | Activity Value Test D (ED50 mmHg, dose decreasing blood pressure by 50 mmHg) (blood pressure)
O=C(O)CCCCCC[C@H]1C(=O)CC[C@@H]1/C=C/[C@H](O)C1CC2CCC2C1 (mixture of isomers) [TR-4096, dl-7-{5-oxo-2R[3R-hydroxy-3-(bicyclo[3.2.0]hept-3-yl)-1E-propenyl[cyclopent-1R-yl}heptanoic acid] | 0 (<26) | 2 (0.11 - 1.0) | 1 (>1.0) | 0 (>10.0)
O=C(O)CCCCCC[C@H]1C(=O)CC[C@@H]1/C=C/[C@@H](O)C1CC2CCC2C1 (mixture of isomers) [TR-4097, dl-7-{5-oxo-2R-[3S-hydroxy-3-(bicyclo[3.2.0]hept-3-yl)-1E-propenyl]cyclopent-1R-yl}heptanoic acid] | 2 (26-50, significant) | 1 (1.01 - 10.0) | 1 (>1.0) | 0 (>10.0)
COC(=O)CCCCCC[C@H]1C(=O)C[C@@H](O)[C@@H]1/C=C/[C@H](O)C1CC2CCC2C1 (stereo partly drawn) [TR-4098, methyl 7-{3R-hydroxy-5-oxo-2R-[3R-hydroxy-3-(bicyclo[3.2.0]hept-3-yl)-1E-propenyl]cyclopent-1R-yl]heptanoate] | 4 (76-100) | 2 (0.11 - 1.0) |  | 2 (0.11 - 1.0)
COC(=O)CCCCCC[C@H]1C(=O)C=C[C@@H]1/C=C/[C@H](O)CCCCC1CCC2CCC1C2 (stereo partly drawn) [TR-4119, methyl 7-{5-oxo-2R-[3R-hydroxy-7-(bicyclo[3.2.1]oct-2-yl)-1E-hepentyl]cyclopent-3-en-1R-yl}heptanoate] | 0 (<26) | 0 (>10.0) | 1 (>1.0) | 0 (>10.0)
COC(=O)CCCCCC[C@H]1C(=O)C[C@@H](O)[C@@H]1/C=C/[C@@H](O)CCCCC1CCC2CCC1C2 (stereo partly drawn) [TR-4117, methyl 7-{3R-hydroxy-5-oxo-2R-[3S-hydoxy-7-(bicyclo[3.2.1]oct-2-yl)-1E-heptenyl]cyclopent-1R-yl}heptanoate] | 0 (<26) | 0 (>10.0) | 1 (>1.0) | 0 (>10.0)
O=C(O)CCC/C=C\C[C@H]1C(=O)CC[C@@H]1/C=C/[C@H](O)CCCCC1CCCC2CCCCC21 (relative stereo) [TR-4174, dl-7-{5-oxo-2R-[3R-hydroxy-7-(bicyclo[4.4.0]dec-2-yl)-1E-heptenyl]cyclopent-1R-yl}-hept-5Z-enoic acid] |  |  | 1 (>1.0) | 
COC(=O)CCCCCC[C@H]1C(=O)C=C[C@@H]1/C=C/[C@@H](O)CCCCC1CCC2CCC1C2 (stereo partly drawn) [TR-4118, methyl 7-{5-oxo-2R-[3S-hydroxy-7-(bicyclo[3.2.1]oct-2-yl)-1E-heptenyl]cyclopent-3-en-1R-yl}heptanoate] | 0 (<26) | 0 (>10.0) | 1 (>1.0) | 0 (>10.0)
COC(=O)CCCCCC[C@@H]1[C@@H](/C=C/[C@@H](O)C2CC3CCC3C2)[C@H](O)C[C@H]1O (stereo partly drawn) [TR-4712, methyl 7-{3R,5R-dihydroxy-2R-[3S-hydroxy-3-(bicyclo[3.2.0]hept-3-yl)-1E-propenyl]cyclopent-1R-yl}heptanoate] | 2 (26-50, significant) |  |  | 
O=C(O)CCC/C=C\C[C@H]1C(=O)CC[C@@H]1/C=C/[C@@H](O)C1CC2CCC2C1 (mixture of isomers) [TR-4102, dl-7-{5-oxo-2R-[8 3S-hydroxy-3-(bicyclo[3.2.0]hept-3-yl)-1E-propenyl]cyclopent-1R-yl}hept-5Z-enoic acid] | 4 (76-100) | 2 (0.11 - 1.0) | 1 (>1.0) | 0 (>10.0)
COC(=O)CCCCCC[C@H]1C(=O)C[C@@H](O)[C@@H]1/C=C/[C@@H](O)CCCCC1CCCC2CCCCC21 (stereo partly shown) [TR-4172] | 0 (<26) | 0 (>10.0) | 1 (>1.0) | 0 (>10.0)
COC(=O)CCCCCC[C@H]1C(=O)C[C@@H](O)[C@@H]1/C=C/[C@H](O)CCCCC1CCC2CCC1C2 (stereo partly drawn) [TR-4116, methyl 7-{3R-hydroxy-5-oxo-2R-[3R-hydroxy-7-(bicyclo[3.2.1]oct-2-yl)-1E-heptenyl]cyclopent-1R-yl}heptanoate] | 0 (<26) | 0 (>10.0) | 1 (>1.0) | 0 (>10.0)
COC(=O)CCCCCC[C@@H]1[C@@H](/C=C/[C@@H](O)C2CC3CCC3C2)[C@H](O)C[C@@H]1O (stereo partly drawn) [TR-4711, methyl 7-{3R, 5S-dihydroxy-2R-[3S-hydroxy-3-(bicyclo[3.2.0]hept-3-yl)-1E-propenyl]cyclopent-1R-yl}heptanoate] | 1 (26-50, not significant) |  |  | 
O=C(O)CCCCCC[C@H]1C(=O)CC[C@@H]1/C=C/[C@H](O)CCCCC1CCCC2CCCCC21 (relative stereo) [TR-4190, dl-7-{5-oxo-2R-[3R-hydroxy-7-(bicyclo[4.4.0]dec-2-yl)-1E-heptenyl]cyclopent-1R-yl}heptanoic acid] | 0 (<26) |  | 1 (>1.0) | 
O=C(O)CCC/C=C\C[C@H]1C(=O)CC[C@@H]1/C=C/[C@H](O)CCCCC1CCCC2CCCCC21 (mixture of isomers) [TR-4173, dl-7-{5-oxo-2R-[3R-hydroxy-7-(bicyclo[4.4.0]dec-2-yl)-1E-heptenyl]cyclopent-1R-yl}hept-5Z-enoic acid] |  |  | 1 (>1.0) | 
O=C(O)CCCCCC[C@H]1C(=O)CC[C@@H]1/C=C/[C@@H](O)CCCCC1CCCC2CCCCC21 (relative stereo) [TR-4189, dl-7-{5-oxo-2R[3S-hydroxy-7-(bicyclo[4.4.0]dec-2-yl)-1E-heptenyl]cyclopent-1R-yl}heptanoic acid] | 0 (<26) |  | 1 (>1.0) | 
